The record followed here is PMC4019984, “Kinase and channel activity of TRPM6 are co-ordinated by a dimerization motif and pocket interaction” (Biochemical Journal, 2014).

In one assay the target is T1, TRPM6-(1730–end) (Homo sapiens, UniProt Q9BX84).
T1 construct: expressed in transfected cells; host or cells: HEK-293
T1 sequence (Q9BX84 1730-2022 limits assumed): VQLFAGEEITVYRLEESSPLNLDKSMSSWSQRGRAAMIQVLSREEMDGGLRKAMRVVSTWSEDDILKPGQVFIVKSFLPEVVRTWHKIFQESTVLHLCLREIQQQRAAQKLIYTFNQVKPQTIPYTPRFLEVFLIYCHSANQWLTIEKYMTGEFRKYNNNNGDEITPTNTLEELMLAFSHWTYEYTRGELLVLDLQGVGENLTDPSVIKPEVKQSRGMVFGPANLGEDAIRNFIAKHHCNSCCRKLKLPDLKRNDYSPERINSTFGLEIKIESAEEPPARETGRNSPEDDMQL
Briefly: Kinase activation assay (MBP substrate), TRPM6-(1730–end). Format: biochemical. To be noted: FLAG-tagged TRPM6-(1730–end) immunoprecipitated from HEK-293; MBP 1 μg, 0.1 mM [γ-32P]ATP, 10 mM MgCl2, 30 min at 30°C; increasing peptide concentrations; read-out: half-maximal activation. The protocol: In assays using E. coli-expressed TRPM6, reactions were set up in a volume of 20 μl, with substrate MBP (myelin basic protein) at 1 μg and kinase at 0.1–10 μg in buffer A containing 0.1% 2-mercaptoethanol, 10 mM MgCl2 and 0.1 mM [γ-^32P]ATP (~1000 cpm·pmol^−1). Assays were carried out for 30 min at 30°C with shaking at 1000 rev./min and terminated by addition of SDS sample buffer. […] Proteins were detected by Coomassie Blue staining and gels were imaged using an Epson scanner and dried completely using a gel dryer (Bio-Rad Laboratories). Incorporation of [γ-^32P]ATP into substrates was analysed by autoradiography using Hyperfilm (GE Healthcare) or quantified by Cerenkov counting.
Figure 2 Identification of dimerization motif residues in TRPM6 (A) Structural model of TRPM7 α-kinase depicting the N-terminal non-catalytic α-helix of one monomer that interacts with the kinase segment of the other monomer. (B) Fluorescence polarization analysis of wild-type (WT) and mutant (Mut) dimerization motif peptides with E. coli-purified GST-tagged TRPM6-(1730–end). […] The samples were analysed by immunoblotting with anti-GST antibody (top panel). […] Proteins were separated by SDS/PAGE, stained with Coomassie Blue (top and middle gels) and MBP phosphorylation was detected by autoradiography (bottom gel). […] The pull-down samples were analysed by immunoblotting with anti-FLAG antibody (top panel). […]

The target in assay [1] is T2, GST-tagged TRPM6-(1730–end) (Homo sapiens, UniProt Q9BX84).
T2 construct: E. coli-purified GST-tagged TRPM6-(1730–end); made in house; host or cells: E. coli BL21
T2 sequence (Q9BX84 1730-2022 limits assumed): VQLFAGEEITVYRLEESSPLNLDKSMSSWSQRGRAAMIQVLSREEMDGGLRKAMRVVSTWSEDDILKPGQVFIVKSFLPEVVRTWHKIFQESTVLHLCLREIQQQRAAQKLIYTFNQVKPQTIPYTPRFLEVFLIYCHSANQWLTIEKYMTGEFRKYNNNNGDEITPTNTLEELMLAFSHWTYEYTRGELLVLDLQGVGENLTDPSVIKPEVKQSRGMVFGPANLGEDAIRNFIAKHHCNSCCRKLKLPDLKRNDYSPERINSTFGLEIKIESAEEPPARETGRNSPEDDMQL
Briefly: Fluorescence polarization binding assay, TRPM6-(1730–end). The note with it: 100 nM labelled peptide, increasing concentrations of TRPM6-(1730–end), pH 7.5, room temperature. The protocol:
The peptides used for the assay contained a C-terminal linker leading to the peptides […] (wild-type) and […] (mutant). The peptides were labelled with Lumio Green (Invitrogen) following the manufacturer's protocol. Fluorescence polarization measurements were performed at room temperature in buffer containing 25 mM Tris/HCl (pH 7.5), 200 mM NaCl and 5 mM 2-mercaptoethanol. Binding assays were performed by combining 100 nM labelled peptide with increasing concentrations of TRPM6 kinase, in a total volume of 30 μl of buffer, and end-point polarization measurements were made using the BMG PheraStar plate reader. The polarization values were measured at an excitation wavelength of 485 nm and an emission wavelength of 538 nm, and were corrected for fluorescent probe alone. At least ten data points were measured for each curve, and each data point was measured in duplicate. Data were analysed using GraphPad Prism 5 and curve-fitting of the data from two independent experiments was performed with one-site specific binding with Hill slope [model Y=BmaxX^h/(Kd^h+X^h)] to determine Kd values.
(Figure 2A). We next utilized fluorescence polarization technology, a sensitive method to evaluate interactions between proteins and peptides. […]
(Fluorescence polarisation rises when a labelled molecule tumbles more slowly, as on binding a larger partner.)

The target of assay [2] is T3, GST-tagged TRPM6-(1730–end), E. coli-purified, Q9BX84.
T3 chain: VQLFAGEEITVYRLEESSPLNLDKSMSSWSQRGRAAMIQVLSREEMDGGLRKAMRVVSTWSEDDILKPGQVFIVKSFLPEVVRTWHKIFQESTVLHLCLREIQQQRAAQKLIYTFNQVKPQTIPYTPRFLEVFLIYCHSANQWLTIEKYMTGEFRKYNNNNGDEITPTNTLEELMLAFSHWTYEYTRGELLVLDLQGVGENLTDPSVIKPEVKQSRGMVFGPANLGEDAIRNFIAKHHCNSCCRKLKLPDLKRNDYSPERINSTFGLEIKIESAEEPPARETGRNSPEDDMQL
Briefly: fluorescence polarisation. The note with it: chain shown with the change; read at the highest titration point, 2.5 µM TRPM6-(1730-end); parent: est. 94; read off a plot.

Take `CC[C@H](C)[C@H](NC(=O)[C@H](C)NC(=O)[C@H](CO)NC(=O)[C@H](Cc1ccc(O)cc1)NC(=O)[C@H](Cc1c[nH]cn1)NC(=O)[C@H](Cc1c[nH]cn1)NC(=O)[C@H](Cc1c[nH]cn1)NC(=O)[C@@H]1CCCN1C(=O)[C@H](CCC(=O)O)NC(=O)[C@H](CCC(N)=O)NC(=O)[C@@H]1CCCN1C(=O)[C@H](CO)NC(=O)[C@H](CCCCN)NC(=O)[C@@H](N)CC(C)C)C(=O)N[C@@H](CCC(=O)O)C(=O)N[C@@H](CCCNC(=N)N)C(=O)N[C@@H](CC(N)=O)C(=O)N[C@@H](CC(N)=O)C(=O)N[C@@H](CC(C)C)C(=O)N[C@@H](CCSC)C(=O)N[C@@H](CCCNC(=N)N)C(=O)N[C@@H](CC(C)C)C(=O)N[C@@H](CO)C(=O)N[C@@H](CCC(N)=O)C(=O)N[C@H](C(=O)N[C@H](C(=O)N1CCC[C@H]1C(=O)N[C@@H](Cc1ccccc1)C(=O)N[C@H](C(=O)N1CCC[C@H]1C(=O)N[C@H](C(=O)N[C@@H](CCC(N)=O)C(=O)N[C@@H](CC(C)C)C(=O)N[C@@H](Cc1ccccc1)C(=O)N[C@@H](C)C(=O)NCC(=O)N[C@@H](CCC(=O)O)C(=O)N[C@@H](CCC(=O)O)C(=O)N[C@H](C(=O)N[C@H](C(=O)N[C@H](C(=O)O)C(C)C)[C@@H](C)O)[C@@H](C)CC)C(C)C)[C@@H](C)O)[C@@H](C)CC)[C@@H](C)O` [dimerization motif peptide]: the EC50 at TRPM6-(1730–end) is about 15 µM.
Take “LKSPQEPHHHYSAIERNNAMRASQTIPFTPVQLFAGEEITVGGCCPGCC [mutant dimerization motif peptide, mutant (L1718A+L1721A) dimerization motif peptide with C-terminal linker, labelled with Lumio Green]”: the “fluorescence polarization increase (binding)” value in assay [1] is given as “only background increases in fluorescence polarization were observed”.
Turning to LKSPQEPHHHYSAIERNNAMRASQTIPFTPVQLFAGEEITVGGCCPGCC, the response in assay [2] is 24 mP.
